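Briefly, cells in 96-well plates were exposed to five compound concentrations for 48 h, and endpoints were estimated by linear interpolation. GI50 is the concentration that inhibits growth by half. TGI: concentration producing complete growth inhibition.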
How the values were obtained:
Experiment in all cases: NCI tumour cell line growth inhibition, 48 h
SF-268 CNS = tested on: SF-268 CNS
DU-145 prostate = tested on: DU-145 prostate
SK-MEL-2 melanoma = tested on: SK-MEL-2 melanoma
CAKI-1 renal = tested on: CAKI-1 renal
LOX IMVI melanoma = tested on: LOX IMVI melanoma
UO-31 renal = tested on: UO-31 renal
TK-10 renal = tested on: TK-10 renal
OVCAR-8 ovarian = tested on: OVCAR-8 ovarian
HL-60(TB) leukemia = tested on: HL-60(TB) leukemia
ACHN renal = tested on: ACHN renal
MALME-3M melanoma = tested on: MALME-3M melanoma
HCT-15 colon = tested on: HCT-15 colon
SR leukemia = tested on: SR leukemia
BT-549 breast = tested on: BT-549 breast
NCI-H23 lung = tested on: NCI-H23 lung
MOLT-4 leukemia = tested on: MOLT-4 leukemia
HS 578T breast = tested on: HS 578T breast
NCI/ADR-RES ovarian = tested on: NCI/ADR-RES ovarian
SW-620 colon = tested on: SW-620 colon
SK-MEL-5 melanoma = tested on: SK-MEL-5 melanoma
HOP-92 NSCLC = tested on: HOP-92 NSCLC
NCI-H226 lung = tested on: NCI-H226 lung
UACC-257 melanoma = tested on: UACC-257 melanoma
SK-MEL-28 melanoma = tested on: SK-MEL-28 melanoma
HT29 colon = tested on: HT29 colon
SNB-19 CNS = tested on: SNB-19 CNS
M14 melanoma = tested on: M14 melanoma
RPMI-8226 leukemia = tested on: RPMI-8226 leukemia
IGROV1 ovarian = tested on: IGROV1 ovarian
K-562 leukemia = tested on: K-562 leukemia
HCC-2998 colon = tested on: HCC-2998 colon
CCRF-CEM leukemia = tested on: CCRF-CEM leukemia
A498 renal = tested on: A498 renal
HCT-116 colon = tested on: HCT-116 colon
SF-295 CNS = tested on: SF-295 CNS
T-47D breast = tested on: T-47D breast
OVCAR-3 ovarian = tested on: OVCAR-3 ovarian
OVCAR-4 ovarian = tested on: OVCAR-4 ovarian
KM12 colon = tested on: KM12 colon
MDA-MB-231 breast = tested on: MDA-MB-231 breast
MDA-MB-435 = tested on: MDA-MB-435
NCI-H522 lung = tested on: NCI-H522 lung
HOP-62 NSCLC = tested on: HOP-62 NSCLC
SNB-75 CNS = tested on: SNB-75 CNS
U251 CNS = tested on: U251 CNS
OVCAR-5 ovarian = tested on: OVCAR-5 ovarian
EKVX NSCLC = tested on: EKVX NSCLC
RXF 393 renal = tested on: RXF 393 renal
NCI-H460 lung = tested on: NCI-H460 lung
A549 NSCLC = tested on: A549 NSCLC
786-0 renal = tested on: 786-0 renal
PC-3 prostate = tested on: PC-3 prostate
SK-OV-3 ovarian = tested on: SK-OV-3 ovarian
UACC-62 melanoma = tested on: UACC-62 melanoma
COLO 205 colon = tested on: COLO 205 colon
MCF7 breast = tested on: MCF7 breast
SN12C renal = tested on: SN12C renal

## O=C1CNc2cc(N3CCN(c4ccccc4)CC3)ccc2N1
SF-268 CNS
  TGI: > 100000 nM
DU-145 prostate
  TGI: > 100000 nM
SK-MEL-2 melanoma
  TGI: > 100000 nM
CAKI-1 renal
  TGI: > 100000 nM
LOX IMVI melanoma
  TGI: > 100000 nM
UO-31 renal
  TGI: > 100000 nM
TK-10 renal
  TGI: > 100000 nM
OVCAR-8 ovarian
  TGI: > 100000 nM
HL-60(TB) leukemia
  TGI: > 100000 nM
ACHN renal
  TGI: > 100000 nM
MALME-3M melanoma
  TGI: > 100000 nM
HCT-15 colon
  TGI: > 100000 nM
SR leukemia
  TGI: > 100000 nM
BT-549 breast
  TGI: > 100000 nM
NCI-H23 lung
  TGI: > 100000 nM
MOLT-4 leukemia
  TGI: > 100000 nM
HS 578T breast
  TGI: > 100000 nM
NCI/ADR-RES ovarian
  TGI: > 100000 nM
SW-620 colon
  TGI: > 100000 nM
SK-MEL-5 melanoma
  TGI: > 100000 nM
HOP-92 NSCLC
  TGI: > 100000 nM
NCI-H226 lung
  TGI: > 100000 nM
UACC-257 melanoma
  TGI: > 100000 nM
SK-MEL-28 melanoma
  TGI: > 100000 nM
HT29 colon
  TGI: > 100000 nM
SNB-19 CNS
  TGI: > 100000 nM
M14 melanoma
  TGI: > 100000 nM
RPMI-8226 leukemia
  TGI: > 100000 nM
IGROV1 ovarian
  TGI: > 100000 nM
K-562 leukemia
  TGI: > 100000 nM
HCC-2998 colon
  TGI: > 100000 nM
CCRF-CEM leukemia
  TGI: > 100000 nM
A498 renal
  TGI: > 100000 nM
HCT-116 colon
  TGI: > 100000 nM
SF-295 CNS
  TGI: > 100000 nM
T-47D breast
  TGI: > 100000 nM
OVCAR-3 ovarian
  TGI: > 100000 nM
OVCAR-4 ovarian
  TGI: > 100000 nM
KM12 colon
  TGI: > 100000 nM
MDA-MB-231 breast
  TGI: > 100000 nM
MDA-MB-435
  TGI: > 100000 nM
NCI-H522 lung
  TGI: > 100000 nM
HOP-62 NSCLC
  TGI: > 100000 nM
SNB-75 CNS
  TGI: > 100000 nM
U251 CNS
  TGI: > 100000 nM
OVCAR-5 ovarian
  TGI: > 100000 nM
EKVX NSCLC
  TGI: > 100000 nM
RXF 393 renal
  TGI: > 100000 nM
NCI-H460 lung
  TGI: > 100000 nM
A549 NSCLC
  TGI: > 100000 nM
786-0 renal
  TGI: > 100000 nM
PC-3 prostate
  TGI: > 100000 nM
SK-OV-3 ovarian
  TGI: > 100000 nM
UACC-62 melanoma
  TGI: > 100000 nM
COLO 205 colon
  TGI: > 100000 nM

## COc1cc(Nc2cc(C)nc(N3CCN(c4ccnc5cc(Cl)ccc45)CC3)n2)cc(OC)c1
SF-268 CNS
  GI50: 377 nM
  TGI: > 100000 nM
DU-145 prostate
  GI50: 318 nM
MCF7 breast
  GI50: 32.4 nM
  TGI: > 100000 nM
SK-MEL-2 melanoma
  GI50: 186 nM
  TGI: > 100000 nM
CAKI-1 renal
  GI50: 198 nM
  TGI: > 100000 nM
LOX IMVI melanoma
  GI50: 133 nM
  TGI: 2820 nM
UO-31 renal
  GI50: 139 nM
  TGI: > 100000 nM
TK-10 renal
  GI50: 538 nM
  TGI: 41300 nM
OVCAR-8 ovarian
  GI50: 337 nM
  TGI: > 79100 nM
HL-60(TB) leukemia
  GI50: 240 nM
  TGI: 20800 nM
ACHN renal
  GI50: 72.7 nM
  TGI: > 100000 nM
MALME-3M melanoma
  GI50: 5080 nM
  TGI: > 100000 nM
HCT-15 colon
  GI50: 56.1 nM
  TGI: > 100000 nM
SR leukemia
  GI50: 169 nM
  TGI: 3300 nM
BT-549 breast
  GI50: 498 nM
  TGI: 6610 nM
NCI-H23 lung
  GI50: 302 nM
  TGI: > 100000 nM
MOLT-4 leukemia
  GI50: 400 nM
  TGI: > 40900 nM
HS 578T breast
  GI50: 176 nM
  TGI: > 100000 nM
NCI/ADR-RES ovarian
  GI50: 155 nM
  TGI: 1240 nM
SW-620 colon
  GI50: 146 nM
  TGI: > 100000 nM
SK-MEL-5 melanoma
  GI50: 77.8 nM
  TGI: 351 nM
HOP-92 NSCLC
  GI50: 97.3 nM
  TGI: 4680 nM
NCI-H226 lung
  GI50: 362 nM
UACC-257 melanoma
  GI50: 907 nM
  TGI: > 100000 nM
SK-MEL-28 melanoma
  GI50: 99.3 nM
  TGI: > 100000 nM
HT29 colon
  GI50: 266 nM
  TGI: 2080 nM
SNB-19 CNS
  GI50: 318 nM
  TGI: > 100000 nM
SN12C renal
  GI50: 309 nM
  TGI: > 100000 nM
RPMI-8226 leukemia
  GI50: 313 nM
  TGI: 3510 nM
IGROV1 ovarian
  GI50: 267 nM
  TGI: > 100000 nM
K-562 leukemia
  GI50: 108 nM
  TGI: > 61900 nM
HCC-2998 colon
  GI50: 222 nM
  TGI: 4220 nM
CCRF-CEM leukemia
  GI50: 268 nM
  TGI: > 100000 nM
A498 renal
  GI50: 84.2 nM
  TGI: 658 nM
HCT-116 colon
  GI50: 103 nM
  TGI: 5450 nM
SF-295 CNS
  GI50: 49.6 nM
  TGI: 439 nM
T-47D breast
  GI50: 2360 nM
  TGI: > 100000 nM
OVCAR-3 ovarian
  GI50: 66.2 nM
  TGI: 437 nM
OVCAR-4 ovarian
  GI50: 128 nM
  TGI: > 100000 nM
KM12 colon
  GI50: 32.3 nM
  TGI: 4730 nM
MDA-MB-435
  GI50: 30.6 nM
  TGI: 105 nM
NCI-H522 lung
  GI50: 50.1 nM
  TGI: 651 nM
HOP-62 NSCLC
  GI50: 194 nM
  TGI: 14300 nM
SNB-75 CNS
  GI50: 142 nM
  TGI: 1060 nM
U251 CNS
  GI50: 268 nM
  TGI: > 100000 nM
OVCAR-5 ovarian
  GI50: 487 nM
  TGI: > 100000 nM
RXF 393 renal
  GI50: 35.4 nM
  TGI: 286 nM
NCI-H460 lung
  GI50: 180 nM
  TGI: > 32300 nM
A549 NSCLC
  GI50: 227 nM
  TGI: > 39700 nM
786-0 renal
  GI50: 153 nM
  TGI: 5820 nM
PC-3 prostate
  GI50: 245 nM
  TGI: > 100000 nM
SK-OV-3 ovarian
  GI50: 253 nM
  TGI: > 78900 nM
UACC-62 melanoma
  GI50: 95.5 nM
  TGI: > 71700 nM
COLO 205 colon
  GI50: 202 nM
  TGI: 537 nM

From PubChem BioAssay (NCI)
